Data reported in patent US5858972A, “Antithrombotic agents and methods of use” (La Jolla Cancer Research Foundation, priority 1996, dated 1999).
Converted amounts (≈) assume the structure as drawn. Where a SMILES comes first, the peptide text is derived from it. Bridges are numbered along the chain shown (N, C = ends). [ ]: non-standard residue; d: D form. Nle = CCCC[C@H](N)C(=O)O

Experiments:
[1] = system: platelets (platelet-rich plasma); experiment: ADP-induced platelet aggregation in citrated platelet-rich plasma (low Ca2+); format: cell-based; conditions: human PRP, 10 μM ADP; for IC50, platelet aggregation in citrated plasma: citrated plasma (about 0.18 mM free Ca2+), 37° C.
Description: (§1) This example provides platelet aggregation studies for various peptides of the present invention. The studies compare the effect of the peptide on aggregation in both citrated and heparinized plasma. Because citrate is a chelating agent for calcium ions, the citrated plasma has a low calcium concentration as is characteristic of a clot site. In contrast, heparinized plasma has a calcium concentration similar to that of physiological conditions elsewhere in the blood stream.
(§2) Whole blood was drawn by a licensed phlebotomist from the antecubital vein using a 21 gauge butterfly infusion set and syringe from normal human volunteers. Platelet-rich plasma (PRP) was prepared by centrifuging heparinized (20 Units lithium porcine mucosa heparin/ml whole blood) or citrated (0.38% sodium citrate) whole blood for 12 min. at 200 relative centrifugal force (RCF). Platelet-poor plasma (PPP) is prepared by centrifuging PRP at 750 RCF for 12 min. and collecting the supernatant. Blood cell counts were performed using a Serano Baker automated cell counter. PRP platelet counts were adjusted to 200,000/μl by dilution with PPP. Final plasma free Ca+^2 concentrations were approximately 0.18 mM for citrated plasma and 2.3 mM for heparinized plasma. Platelet aggregation was determined spectrophotometrically utilizing a four channel aggregometer (Chrono-Log 570) by measuring the increase of light transmission through a stirred suspension of PRP maintained at 37° C. Dilutions of the peptides were added to the suspensions and aggregation induced with 10 μM adenosine diphosphate (ADP). Values were expressed as percentage of aggregation in the absence of peptides. This represents the percentage of light transmission standardized to PRP and PPP samples yielding 0% and 100% light transmission respectively.
(§3) Peptide anti-aggregation potencies were determined from dose-responsive curves for the inhibition of the maximum aggregation responses stimulated by high doses of ADP (10 μm). The 50% inhibitory concentration of each peptide (IC50) was determined by regression analysis of these curves.

GP-IIb/IIIa = target: T1, GP-IIb/IIIa (Homo sapiens, UniProt P05106+P08514); experiment: Platelet aggregation in citrated (low Ca2+) versus heparinized (physiological Ca2+) plasma: apparent affinity for GP-IIb/IIIa; format: cell-based; conditions: 10 μM ADP; for difference in apparent binding affinity for GP-IIb/IIIa at low (citrate) versus higher (heparin) calcium concentration, in words: citrated vs heparinized plasma; for increase (separation) in apparent affinity for GP-IIb/IIIa in low calcium concentration as compared to physiological calcium concentration: citrated plasma (about 0.18 mM Ca2+) vs heparinized plasma (2.3 mM Ca2+)
T1 construct: Platelet-rich plasma (PRP) was prepared by centrifuging heparinized; endogenous in cells; host or cells: human platelets in platelet-rich plasma (citrated or heparinized) from normal volunteers
Description: as §1, §2, §3

T1 sequence (P08514 32-887 limits assumed): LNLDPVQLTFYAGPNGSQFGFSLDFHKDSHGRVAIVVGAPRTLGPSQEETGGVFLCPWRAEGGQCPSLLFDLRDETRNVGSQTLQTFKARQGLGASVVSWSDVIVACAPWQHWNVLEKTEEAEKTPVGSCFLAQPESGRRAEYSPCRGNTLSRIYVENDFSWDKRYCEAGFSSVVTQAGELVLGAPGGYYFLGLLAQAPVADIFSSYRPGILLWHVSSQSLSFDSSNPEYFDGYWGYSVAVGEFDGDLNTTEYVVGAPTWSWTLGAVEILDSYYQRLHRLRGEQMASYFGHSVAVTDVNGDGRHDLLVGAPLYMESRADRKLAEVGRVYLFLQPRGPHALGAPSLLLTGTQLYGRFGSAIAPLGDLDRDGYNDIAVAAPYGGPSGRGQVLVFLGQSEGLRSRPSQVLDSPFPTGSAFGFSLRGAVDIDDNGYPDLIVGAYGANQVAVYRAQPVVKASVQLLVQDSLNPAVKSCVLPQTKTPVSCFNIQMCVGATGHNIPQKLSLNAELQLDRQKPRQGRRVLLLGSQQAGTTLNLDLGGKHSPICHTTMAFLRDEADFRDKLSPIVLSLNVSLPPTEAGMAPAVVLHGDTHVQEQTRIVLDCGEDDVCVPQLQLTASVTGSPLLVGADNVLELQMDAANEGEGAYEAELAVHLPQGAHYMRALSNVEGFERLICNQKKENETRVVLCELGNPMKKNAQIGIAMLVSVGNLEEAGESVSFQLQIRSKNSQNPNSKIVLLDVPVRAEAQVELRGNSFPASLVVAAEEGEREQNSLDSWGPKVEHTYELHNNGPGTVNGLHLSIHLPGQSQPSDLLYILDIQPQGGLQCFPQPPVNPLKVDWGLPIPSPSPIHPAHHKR
T1 sequence (P08514 891-1039 partner limits assumed): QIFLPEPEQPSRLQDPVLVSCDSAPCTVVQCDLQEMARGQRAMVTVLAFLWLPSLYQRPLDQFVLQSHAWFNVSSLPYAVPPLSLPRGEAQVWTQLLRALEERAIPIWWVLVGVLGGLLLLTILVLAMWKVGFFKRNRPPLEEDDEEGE
T1 sequence (P05106 27-788): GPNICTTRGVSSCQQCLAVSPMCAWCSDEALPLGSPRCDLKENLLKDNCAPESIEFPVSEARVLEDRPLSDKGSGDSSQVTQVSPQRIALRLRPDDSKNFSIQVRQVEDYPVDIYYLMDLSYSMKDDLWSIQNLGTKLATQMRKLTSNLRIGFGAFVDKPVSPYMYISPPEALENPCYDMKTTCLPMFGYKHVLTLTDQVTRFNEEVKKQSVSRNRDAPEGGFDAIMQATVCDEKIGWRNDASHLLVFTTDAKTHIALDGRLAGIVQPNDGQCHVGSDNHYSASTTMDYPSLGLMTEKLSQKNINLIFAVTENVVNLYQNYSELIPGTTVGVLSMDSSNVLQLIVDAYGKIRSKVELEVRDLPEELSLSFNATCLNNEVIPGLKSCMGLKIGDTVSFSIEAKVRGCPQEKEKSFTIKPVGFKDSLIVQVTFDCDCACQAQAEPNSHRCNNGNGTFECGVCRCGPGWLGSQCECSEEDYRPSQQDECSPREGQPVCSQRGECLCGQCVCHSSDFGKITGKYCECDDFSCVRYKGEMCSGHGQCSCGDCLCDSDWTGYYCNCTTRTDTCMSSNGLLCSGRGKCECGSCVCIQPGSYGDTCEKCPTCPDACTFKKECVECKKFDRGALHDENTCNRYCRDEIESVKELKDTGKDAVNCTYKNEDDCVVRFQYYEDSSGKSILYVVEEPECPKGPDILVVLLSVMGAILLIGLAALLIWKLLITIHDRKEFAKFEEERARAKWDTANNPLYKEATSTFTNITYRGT

SMILES	IC50, platelet aggregation in citrated plasma [1]	difference in apparent binding affinity for GP-IIb/IIIa at low (citrate) versus higher (heparin) calcium concentration, in words (GP-IIb/IIIa)	inhibitory activity on platelet aggregation stimulated with ADP, in words [1]	increase (separation) in apparent affinity for GP-IIb/IIIa in low calcium concentration as compared to physiological calcium concentration (GP-IIb/IIIa)
COc1ccc(C[C@@H]2NC(=O)[C@H](CC(=O)O)NC(=O)CNC(=O)[C@H](C)NC(=O)[C@@H]3CCCN3C(=O)[C@H](CC(N)=O)NC(=O)[C@@H](NC(C)=O)CSSC[C@@H](C(N)=O)NC(=O)[C@H](CCCNC(=N)N)NC2=O)cc1 [SEQ ID NO. 2, Ac-CNPAGD(Y-OMe)RC-NH2] (Ac-CNPAGDY(Me)RC-NH2; disulfide 1-9)	309 µg/mL (≈ 294 µM)	a separation between the apparent binding affinity	–	–
COc1ccc(C[C@H](NC(=O)[C@H](CC(=O)O)NC(=O)CNC(=O)[C@H](C)NC(=O)[C@@H]2CCCN2C(=O)[C@H](CC(N)=O)NC(=O)[C@H](CS)NC(C)=O)C(=O)N[C@@H](CCCNC(=N)N)C(=O)N[C@@H](CS)C(N)=O)cc1 [SEQ ID NO. 5, Ac-CNPAGD(Y-OMe)RC-NH2] (Ac-CNPAGDY(Me)RC-NH2)	> 370 µg/mL	no difference in their apparent affinity for GP-IIb/IIIa at low versus higher calcium concentration	little to no activity	–
CCCC[C@H](NC(=O)[C@@H]1CCCN1C(=O)[C@H](CC(N)=O)NC(=O)[C@H](CS)NC(C)=O)C(=O)NCC(=O)N[C@@H](CC(=O)O)C(=O)N[C@@H](Cc1ccc(OC)cc1)C(=O)N[C@@H](CCCNC(=N)N)C(=O)N[C@@H](CS)C(N)=O [SEQ ID NO. 6, Ac-CNP(Nle)GD(Y-OMe)RC-NH2] (Ac-CNP[Nle]GDY(Me)RC-NH2)	> 370 µg/mL	no difference in their apparent affinity for GP-IIb/IIIa at low versus higher calcium concentration	little to no activity	–
COc1ccc(C[C@@H]2NC(=O)[C@H](CC(=O)O)NC(=O)CNC(=O)[C@H](CCCNC(=N)N)NC(=O)[C@@H]3CCCN3C(=O)[C@H](CC(N)=O)NC(=O)[C@@H](NC(C)=O)CSSC[C@@H](C(N)=O)NC(=O)[C@H](CCCNC(=N)N)NC2=O)cc1 [SEQ ID NO. 8, Ac-CNPRGD(Y-OMe)RC-NH2]	0.2 µg/mL (≈ 0.176 µM)	–	–	12 fold
CCCC[C@@H]1NC(=O)[C@@H]2CCCN2C(=O)[C@H](CC(N)=O)NC(=O)[C@@H](NC(C)=O)CSSC[C@@H](C(N)=O)NC(=O)[C@H](CCCNC(=N)N)NC(=O)[C@H](Cc2ccc(OC)cc2)NC(=O)[C@H](CC(=O)O)NC(=O)CNC1=O [SEQ ID NO. 3, Ac-CNP(Nle)GD(Y-OMe)RC-NH2] (Ac-CNP[Nle]GDY(Me)RC-NH2; disulfide 1-9)	43 µg/mL (≈ 39.3 µM)	–	–	20 fold
